Values after ≈ are worked out from the molar mass of the structure shown. Structures can show the parent of a compound that is named as a salt. Where two headings read alike, the source gives them in different places.
Tests used:
E. coli CSH(RE45) = assay: microbe, parasite or virus in culture; format: cell-based; conditions: 10^6 CFU/ml; for MIC: Escherichia coli, 16 h, read-out: Minimum Inhibitory Concentration (MIC), *E. coli CSH(RE45), lactamase-producing strain
Procedure: (§1) The in vitro antibacterial activities of the compounds of the present invention against various microorganisms, were measured by the following agar plate dilution method. One platinum loopfull of each test microorganism incubated overnight in Mueller Hinton broth, was inoculated to Mueller Hinton agar (inoculum size: 10^6 CFU/ml). Such culture media containing various antibiotics in various concentrations were prepared. After incubation at 37° C. for 16 hours, the minimum inhibitory concentrations (MIC: μg/ml) were measured.

E. coli CSH2 (RK1) = assay: microbe, parasite or virus in culture; format: cell-based; conditions: 10^6 CFU/ml; for MIC: Escherichia coli, 16 h, read-out: Minimum Inhibitory Concentration (MIC), *E. coli CSH2 (RK1), lactamase-producing strain
Procedure: as §1

E. cloacae 963 = assay: in vitro antibacterial activity, agar plate dilution method (MIC); format: cell-based; conditions: 10^6 CFU/ml
Procedure: as §1

E. cloacae Nek 39 = assay: as above; format: cell-based; conditions: 10^6 CFU/ml; for MIC: Enterobacter cloacae, NEK39, 16 h
Procedure: as §1

E. coli GN5482 = assay: as above; format: cell-based; conditions: Escherichia coli
Procedure: as §1

E. coli NIHJ JC2 = assay: as above; format: cell-based; conditions: Escherichia coli
Procedure: as §1

K. oxytoca GN10650 = assay: as above; format: cell-based; conditions: 10^6 CFU/ml; for MIC: Klebsiella oxytoca, GN10650, 16 h, read-out: Minimum Inhibitory Concentration (MIC), *K. oxytoca GN10650, lactamase-producing strain
Procedure: as §1

K. pneumoniae No. 42 = assay: as above; format: cell-based; conditions: 10^6 CFU/ml; for MIC: Klebsiella pneumoniae
Procedure: as §1

K. pneumoniae PCI-602 = assay: as above; format: cell-based; conditions: Klebsiella pneumoniae, PCI602, 16 h, read-out: Minimum Inhibitory Concentration (MIC), K. pneumoniae PCI-602; 10^6 CFU/ml
Procedure: as §1

M. morganii GN5407 = assay: as above; format: cell-based; conditions: 10^6 CFU/ml; for MIC: Morganella morganii
Procedure: as §1

P. vulgaris HX-19 = assay: as above; format: cell-based; conditions: Proteus vulgaris, HX19, 16 h, read-out: Minimum Inhibitory Concentration (MIC)
Procedure: as §1

P. vulgaris No. 33 = assay: as above; format: cell-based; conditions: 10^6 CFU/ml; for MIC: Proteus vulgaris
Procedure: as §1

S. aureus 209P NIHJ-JC1 = assay: as above; format: cell-based; conditions: Staphylococcus aureus, 16 h
Procedure: as §1

S. marcescens IAM 1184 = assay: as above; format: cell-based; conditions: for MIC: Serratia marcescens, IAM1184, 16 h, read-out: Minimum Inhibitory Concentration (MIC)
Procedure: as §1

S. marcescens No. 16-2 = assay: as above; format: cell-based; conditions: Serratia marcescens, NO.162, 16 h
Procedure: as §1

Ps. aeruginosa AK 109 = assay: as above; format: cell-based, Pseudomonas aeruginosa; conditions: Pseudomonas aeruginosa, AK109, 16 h, 10^6 CFU/ml
Procedure: as §1

Ps. aeruginosa AKR17 = assay: as above; format: cell-based, Pseudomonas aeruginosa; conditions: Pseudomonas aeruginosa, read-out: Minimum Inhibitory Concentration (MIC)
Procedure: as §1

Ps. aeruginosa IF03445 = assay: as above; format: cell-based, Pseudomonas aeruginosa; conditions: 10^6 CFU/ml; for MIC: Pseudomonas aeruginosa
Procedure: as §1

Ps. cepacia 23 = assay: as above; format: cell-based, Pseudomonas cepacia; conditions: read-out: Minimum Inhibitory Concentration (MIC)
Procedure: as §1

A. calcoaceticus No. 4 = assay: as above; format: cell-based, Acinetobacter calcoaceticus; conditions: Acinetobacter calcoaceticus, NO.4, 16 h, 10^6 CFU/ml
Procedure: as §1

[1] = Enterobacter cloacae, 16 h, E. cloacae 963, read-out: Minimum Inhibitory Concentration (MIC)
[2] = 16 h, *K. pneumoniae No. 42, lactamase-producing strain, read-out: Minimum Inhibitory Concentration (MIC)
[3] = read-out: Minimum Inhibitory Concentration (MIC)
[4] = S. marcescens IAM 1184, 10^6 CFU/ml
[5] = read-out: Minimum Inhibitory Concentration (MIC), *S. marcescens No. 16-2, lactamase-producing strain, 10^6 CFU/ml
[6] = Ps. aeruginosa AK 109, read-out: Minimum Inhibitory Concentration (MIC)
[7] = 16 h, Ps. aeruginosa AKR17, 10^6 CFU/ml
[8] = A. calcoaceticus No. 4, read-out: Minimum Inhibitory Concentration (MIC)
[9] = Enterobacter cloacae, 963, 16 h, read-out: Minimum Inhibitory Concentration (MIC), E. cloacae 963
[10] = GN5482, 16 h, read-out: Minimum Inhibitory Concentration (MIC)
[11] = NIHJJC2, 16 h, read-out: Minimum Inhibitory Concentration (MIC), E. coli NIHJ JC2, 10^6 CFU/ml, 37° C.
[12] = read-out: Minimum Inhibitory Concentration (MIC), S. aureus 209P NIHJ-JC1, 10^6 CFU/ml, 37° C., 16 hours
[13] = Burkholderia cepacia, 16 h, Ps. cepacia 23, 10^6 CFU/ml
[14] = read-out: Minimum Inhibitory Concentration (MIC), *E. cloacae Nek 39, lactamase-producing strain
[15] = GN5482, 16 h, read-out: Minimum Inhibitory Concentration (MIC), *E. coli GN5482, lactamase-producing strain, 10^6 CFU/ml
[16] = NO.42, 16 h, read-out: Minimum Inhibitory Concentration (MIC), *K. pneumoniae No. 42, lactamase-producing strain
[17] = GN5407, 16 h, read-out: Minimum Inhibitory Concentration (MIC), *M. morganii GN5407, lactamase-producing strain
[18] = NO.33, 16 h, read-out: Minimum Inhibitory Concentration (MIC), *P. vulgaris No. 33, lactamase-producing strain
[19] = read-out: Minimum Inhibitory Concentration (MIC), Ps. aeruginosa AK 109
[20] = IF03445, 16 h, read-out: Minimum Inhibitory Concentration (MIC), Ps. aeruginosa IF03445
[21] = read-out: Minimum Inhibitory Concentration (MIC), A. calcoaceticus No. 4

SMILES | MIC (E. coli CSH(RE45)) [µg/mL] | MIC (E. coli CSH2 (RK1)) [µg/mL] | MIC (E. cloacae 963; [1]) [µg/mL] | MIC (K. oxytoca GN10650) [µg/mL] | MIC (K. pneumoniae No. 42; [2]) [µg/mL] | MIC (K. pneumoniae PCI-602) [µg/mL] | MIC (P. vulgaris HX-19; P. vulgaris HX-19, 10^6 CFU/ml) [µg/mL] | MIC (S. marcescens IAM 1184; [4]) [µg/mL] | MIC (S. marcescens No. 16-2; [5]) [µg/mL] | MIC (Ps. aeruginosa AK 109; [6]) [µg/mL] | MIC (Ps. aeruginosa AKR17; [7]) [µg/mL] | MIC (A. calcoaceticus No. 4; [8]) [µg/mL] | MIC (E. cloacae 963; [9]) [µg/mL] | MIC (E. coli NIHJ JC2; [11]) [µg/mL] | MIC (S. aureus 209P NIHJ-JC1; [12]) [µg/mL] | MIC (Ps. cepacia 23; [13]) [µg/mL] | MIC (E. cloacae Nek 39; [14]) [µg/mL] | MIC (M. morganii GN5407; [17]) [µg/mL] | MIC (P. vulgaris No. 33; [18]) [µg/mL] | MIC (Ps. aeruginosa IF03445; [20]) [µg/mL] | further results
CO/N=C(\C(=O)N[C@@H]1C(=O)N2C(C(=O)O)=C(CSc3nnc(-c4ccccc4)o3)CS[C@H]12)c1csc(N)n1 [compound 1, 7β-[2-(2-aminothiazol-4-yl)-2-methoxyiminoacetamido]-3-(5-phenyl-1,3,4-oxadiazol-2-yl)thiomethyl-3-cephem-4-carboxylic acid trifluoroacetate, reference compound] | 0.39 | 0.39 | 1.56 | 6.25 | 1.56 | 0.0125 | < 0.006 | 1.56 | 6.25 | 50 | > 100 | 100 |  |  |  |  |  |  |  |  | MIC (E. cloacae Nek 39; *E. cloacae Nek 39, lactamase-producing strain, read-out: Minimum Inhibitory Concentration (MIC)): 3.12 µg/mL; MIC (E. coli GN5482; 16 h, *E. coli GN5482, lactamase-producing strain, 10^6 CFU/ml, read-out: Minimum Inhibitory Concentration (MIC)): 0.78 µg/mL; MIC (E. coli NIHJ JC2; NIHJJC2, E. coli NIHJ JC2, 10^6 CFU/ml, 37° C., 16 hours, read-out: Minimum Inhibitory Concentration (MIC)): 0.78 µg/mL; MIC (M. morganii GN5407; 16 h, *M. morganii GN5407, lactamase-producing strain, read-out: Minimum Inhibitory Concentration (MIC)): 0.78 µg/mL; MIC (P. vulgaris No. 33; 16 h, *P. vulgaris No. 33, lactamase-producing strain, read-out: Minimum Inhibitory Concentration (MIC)): 0.78 µg/mL; MIC (S. aureus 209P NIHJ-JC1; [3]): 0.39 µg/mL; MIC (Ps. aeruginosa IF03445; 16 h, Ps. aeruginosa IF03445, read-out: Minimum Inhibitory Concentration (MIC)): > 100 µg/mL; MIC (Ps. cepacia 23; Burkholderia cepacia, 23, 16 h): 12.5 µg/mL
Nc1nc(C(=NOC(C(=O)O)c2ccc(O)c(O)c2)C(=O)NC2C(=O)N3C(C(=O)O)=C(CSc4nnc(-c5ccc(O)c(O)c5)s4)CSC23)cs1 (single isomer, unassigned) [Example 38 DA, disodium 7β-{2-(2-aminothiazol-4-yl)-2-(α-carboxylate-3,4-dihydroxybenzyloxyimino)acetamido]-3-[5-(3,4-dihydroxyphenyl)-1,3,4-thiadiazol-2-yl]thiomethyl-3-cephem-4-carboxylate] |  |  |  |  |  | < 0.006 |  |  |  | 0.2 | 0.1 | 0.025 | 0.05 | 0.2 | 0.78 | < 0.006 |  |  |  |  | Minimum Inhibitory Concentration (MIC) (E. coli CSH(RE45); *E. coli CSH(RE45), lactamase-producing strain): < 0.006 µg/mL; Minimum Inhibitory Concentration (MIC) (E. coli CSH2 (RK1); *E. coli CSH2 (RK1), lactamase-producing strain): < 0.006 µg/mL; Minimum Inhibitory Concentration (MIC) (E. cloacae Nek 39; *E. cloacae Nek 39, lactamase-producing strain): 0.1 µg/mL; MIC (E. coli GN5482; [10]): 0.2 µg/mL; Minimum Inhibitory Concentration (MIC) (K. oxytoca GN10650; *K. oxytoca GN10650, lactamase-producing strain): 0.025 µg/mL; Minimum Inhibitory Concentration (MIC) (K. pneumoniae No. 42; *K. pneumoniae No. 42, lactamase-producing strain): 0.0125 µg/mL; Minimum Inhibitory Concentration (MIC) (M. morganii GN5407; *M. morganii GN5407, lactamase-producing strain): 0.05 µg/mL; MIC (P. vulgaris HX-19): 0.0125 µg/mL; Minimum Inhibitory Concentration (MIC) (P. vulgaris No. 33; *P. vulgaris No. 33, lactamase-producing strain): 0.025 µg/mL; Minimum Inhibitory Concentration (MIC) (S. marcescens IAM 1184; [4]): 0.025 µg/mL; MIC (S. marcescens No. 16-2; [3]): 0.2 µg/mL; Minimum Inhibitory Concentration (MIC) (Ps. aeruginosa IF03445; Ps. aeruginosa IF03445): 0.39 µg/mL
CCON=C(C(=O)N[C@@H]1C(=O)N2C(C(=O)[O-])=C(CSc3ncc(-c4ccc(O)c(O)c4)o3)CS[C@H]12)c1csc(N)n1.[Na+] [Ex. 63, sodium 7β-[2-(2-aminothiazol-4-yl)-2-ethoxyiminoacetamido]-3-[5-(3,4-dihydroxyphenyl)-oxazol-2-yl]thiomethyl-3-cephem-4-carboxylate] | 0.1 | 0.0125 |  | 3.12 |  | < 0.006 |  |  | 6.25 |  |  |  | 0.2 | 0.39 |  |  | 0.39 | 0.1 | 0.025 | 1.56 | MIC (E. coli GN5482; [15]): 1.56 µg/mL; MIC (K. pneumoniae No. 42; [16]): 0.1 µg/mL; MIC (P. vulgaris HX-19): 0.0125 µg/mL; MIC (S. aureus 209P NIHJ-JC1; [3]): 3.12 µg/mL; MIC (S. marcescens IAM 1184): 0.1 µg/mL; MIC (Ps. aeruginosa AK 109; [19]): 1.56 µg/mL; MIC (Ps. aeruginosa AKR17; AKR17, 16 h): 100 µg/mL; MIC (Ps. cepacia 23; Burkholderia cepacia, 23, 16 h): 0.1 µg/mL; MIC (A. calcoaceticus No. 4; [21]): 0.78 µg/mL
C#CCON=C(C(=O)NC1C(=O)N2C(C(=O)O)=C(CSc3nc(C(=O)O)c(-c4ccc(O)c(O)c4)s3)CSC12)c1csc(N)n1 (stereo not shown) [Ex. 56, disodium 78-[2-(2-aminothiazol-4-yl)-2-proparqyloxyiminoacetamido]-3-[4-carboxylate-5-(3,4-dihydroxyphenyl)thiazol-2-yl]thiomethyl-3-cephem-4-carboxylate] | 0.025 | 0.0125 | 0.2 | 12.5 |  | < 0.006 | < 0.006 | 0.05 | 6.25 |  | 100 | 0.2 |  | 0.78 | 6.25 | < 0.006 | 0.78 | 0.05 | 0.05 | 3.12 | MIC (E. coli GN5482; [10]): 3.12 µg/mL; MIC (K. pneumoniae No. 42; [16]): 0.1 µg/mL; MIC (Ps. aeruginosa AK 109; [19]): 6.25 µg/mL
Nc1nc(/C(=N/OCc2ccccc2CC(=O)O)C(=O)N[C@@H]2C(=O)N3C(C(=O)O)=C(CSc4nnc(-c5ccc(O)c(O)c5)o4)CS[C@H]23)cs1 [Ex. 23] | < 0.006 | < 0.006 |  | 0.1 (≈ 0.135 µM) | < 0.006 | < 0.006 | < 0.006 | 0.025 (≈ 0.0338 µM) | 1.56 (≈ 2.11 µM) | 0.1 (≈ 0.135 µM) |  |  | 0.025 (≈ 0.0338 µM) | 0.2 (≈ 0.27 µM) | 6.25 (≈ 8.45 µM) | < 0.006 | 0.1 (≈ 0.135 µM) | 0.025 (≈ 0.0338 µM) | 0.0125 (≈ 0.0169 µM) | 0.39 (≈ 0.527 µM) | MIC (E. coli GN5482; [15]): 0.78 µg/mL (≈ 1.05 µM); MIC (Ps. aeruginosa AKR17; AKR17, 16 h): 12.5 µg/mL (≈ 16.9 µM); MIC (A. calcoaceticus No. 4; [21]): 0.1 µg/mL (≈ 0.135 µM)
